According to patent publication US10195185B2, “3-(1H-imidazo[4,5-C]pyridin-2-yl)-1H-pyrazolo[4,3-B]pyridines and therapeutic uses thereof” (Samumed, LLC, priority 2015, dated 2019):

Columns and labels:
Type in all cases: cell-based
[1] = test system: Wnt activity (Wnt-responsive human Sp5 promoter, TCF/LEF binding sites) in SW480 colon carcinoma cells; test: Wnt activity screening assay: Sp5-Luc luciferase reporter gene in SW480 cells; settings: for EC50: 10-point dose-response from 10 μM, incubated overnight; for inhibition at 10 µM: given for EC50 of >10 μM, read-out: percent inhibition at 10 μM
In short: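 Wnt-driven firefly luciferase in SW480 colon carcinoma cells reports pathway activity after overnight compound exposure (10 μM top concentration, 3-fold steps). Signal is normalized to DMSO controls.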

SW480 colon cancer cells = test: Cell viability assay (CellTiter-Blue), four days; settings: Homo sapiens, 96 h; for EC50: CellTiter-Blue cell viability; for inhibition at 10 µM: read-out: percent inhibition at 10 μM (given for EC50 of >10 μM)
In short: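 4-day exposure, 37 °C/5% CO2; ~2×10^3 SW480 cells/well; 8-pt 1:3 curve, 10–0.0045 μM, duplicates vs DMSO controls. Resazurin→resorufin fluorescence readout, ~3 h. EC50 by nonlinear fit; if >10 μM, % inhibition at 10 μM reported.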

[2] = test system: IL-6 in human monocyte cell line (THP-1 cells); test: IL-6 inhibition in LPS-stimulated THP-1 cells (HTRF); settings: IL-6 in LPS-stimulated THP-1 cells; for EC50: HTRF; for inhibition at 10 µM: read-out: percent inhibition in brackets beside EC50 >10 μM
In short: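 Readout is the 665/620 nm HTRF ratio for secreted IL-6, normalized to DMSO wells, with EC50 from a variable-slope four-parameter fit, or % inhibition at 10 μM when above 10 μM. Cells (1% FBS, 24 h beforehand) got compound for 2 h, then LPS 500 ng/mL for 22 h at 37° C; top dose 10 μM, 0.1% DMSO.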

EC50 [1] [µM]	EC50 (SW480 colon cancer cells) [µM]	EC50 [2] [µM]	SMILES	inhibition at 10 µM [2] [%]	inhibition at 10 µM [1] [%]	inhibition at 10 µM (SW480 colon cancer cells) [%]
1.58	0.926	> 10	Clc1ccc(-c2nccc3[nH]c(-c4n[nH]c5ccc(-c6cncc(CN7CCCC7)c6)nc45)nc23)s1 [Compound 1049, 3-(4-(5-Chlorothiophen-2-yl)-1H-imidazo[4,5-c]pyridin-2-yl)-5-(5-(pyrrolidin-1-ylmethyl)pyridin-3-yl)-1H-pyrazolo [4,3-b]pyridine]	13.2	–	–
> 10	> 10	> 10	COc1cccc(-c2nccc3[nH]c(-c4n[nH]c5ccc(-c6cn[nH]c6)nc45)nc23)c1 [Compound 1020, 3-(4-(3-Methoxyphenyl)-1H-imidazo[4,5-c]pyridin-2-yl)-5-(1H-pyrazol-4-yl)-1H-pyrazolo[4,3-b]pyridine]	0	5.7	6.4
> 10	> 10	> 10	O=C(Nc1cncc(-c2ccc3[nH]nc(-c4nc5c(-c6ccccn6)nccc5[nH]4)c3n2)c1)c1ccccc1 [Compound 151, N-(5-(3-(4-(Pyridin-2-yl)-1H-imidazo[4,5-c]pyridin-2-yl)-1H-pyrazolo[4,3-b]pyridin-5-yl)pyridin-3-yl)benzamide]	28.9	9.9	1.6
1.01	1.12	3.66	FC1(F)CCN(Cc2cncc(-c3ccc4[nH]nc(-c5nc6c(-c7ccsc7)nccc6[nH]5)c4n3)c2)C1 [Compound 306, 5-(5-((3,3-difluoropyrrolidin-1-yl)methyl)pyridin-3-yl)-3-(4-(thiophen-3-yl)-1H-imidazo[4,5-c]pyridin-2-yl)-1H-pyrazolo[4,3-b]pyridine]	–	–	–
0.235	> 10	> 10	Cc1ncc(-c2ccc3[nH]nc(-c4nc5c(-c6cccc(F)c6)nccc5[nH]4)c3n2)s1 [Compound 1126, 5-(3-(4-(3-Fluorophenyl)-1H-imidazo[4,5-c]pyridin-2-yl)-1H-pyrazolo[4,3-b]pyridin-5-yl)-2-methylthiazole]	0	–	26.6
> 10	> 10	> 10	O=C(Nc1cncc(-c2ccc3[nH]nc(-c4nc5c(-c6ccncc6)nccc5[nH]4)c3n2)c1)C1CCCCC1 [Compound 135, N-(5-(3-(4-(pyridin-4-yl)-1H-imidazo[4,5-c]pyridin-2-yl)-1H-pyrazolo[4,3-b]pyridin-5-yl)pyridin-3-yl)cyclohexanecarboxamide]	33.2	2.8	1
1.22	> 10	> 10	Fc1ccc(-c2nccc3[nH]c(-c4n[nH]c5ccc(-c6cncnc6)nc45)nc23)cc1 [Compound 55, 3-(4-(4-Fluorophenyl)-1H-imidazo[4,5-c]pyridin-2-yl)-5-(pyrimidin-5-yl)-1H-pyrazolo[4,3-b]pyridine]	27.3	–	15.1
> 10	> 10	> 10	Cc1cn(-c2nccc3[nH]c(-c4n[nH]c5ccc(-c6cncc(CN7CCCC7)c6)nc45)nc23)cn1 [Compound 210, 3-(4-(4-Methyl-1H-imidazol-1-yl)-1H-imidazo[4,5-c]pyridin-2-yl)-5-(5-(pyrrolidin-1-ylmethyl)pyridin-3-yl)-1H-pyrazolo [4,3-b]pyridine]	24.5	5.5	7.2
> 10	> 10	0.493	COc1cccc(-c2nccc3[nH]c(-c4n[nH]c5ccc(-c6cncc(O)c6)nc45)nc23)c1 [Compound 1030, 5-(3-(4-(3-Methoxyphenyl)-1H-imidazo[4,5-c]pyridin-2-yl)-1H-pyrazolo [4,3-b]pyridin-5-yl)pyridin-3-ol]	–	14.1	6
4.08	9.29	> 10	O=C(Nc1cncc(-c2ccc3[nH]nc(-c4nc5c(-c6ccc(F)cc6)nccc5[nH]4)c3n2)c1)C1CCC1 [Compound 49, N-(5-(3-(4-(4-Fluorophenyl)-1H-imidazo[4,5-c]pyridin-2-yl)-1H-pyrazolo [4,3-b]pyridin-5-yl)pyridin-3-yl)cyclobutanecarboxamide]	0	–	–
> 10	> 10	> 10	CCC(=O)Nc1cncc(-c2ccc3[nH]nc(-c4nc5c(-c6cccc(F)c6)nccc5[nH]4)c3n2)c1 [Compound 1, N-(5-(3-(4-(3-Fluorophenyl)-1H-imidazo[4,5-c]pyridin-2-yl)-1H-pyrazolo [4,3-b]pyridin-5-yl)pyridin-3-yl)propionamide]	0	29.8	28
> 10	> 10	> 10	CC(C)C(=O)Nc1cncc(-c2ccc3[nH]nc(-c4nc5c(-c6cccnc6)nccc5[nH]4)c3n2)c1 [Compound 93, N-(5-(3-(4-(Pyridin-3-yl)-1H-imidazo[4,5-c]pyridin-2-yl)-1H-pyrazolo[4,3-b]pyridin-5-yl)pyridin-3-yl)isobutyramide]	25.1	25.1	5.9
> 10	> 10	> 10	COc1cccc(-c2nccc3[nH]c(-c4n[nH]c5ccc(-c6cncc(OC7CCNCC7)c6)nc45)nc23)c1 [Compound 1025, 3-(4-(3-Methoxyphenyl)-1H-imidazo[4,5-c]pyridin-2-yl)-5-(5-(piperidin-4-yloxy)pyridin-3-yl)-1H-pyrazolo[4,3-b]pyridine]	26.9	15.1	12.7
> 10	> 10	> 10	CN(C)CCNc1cc(F)cc(-c2nccc3[nH]c(-c4n[nH]c5ccc(-c6cnccn6)nc45)nc23)c1 [Compound 792, N^1-(3-Fluoro-5-(2-(5-(pyrazin-2-yl)-1H-pyrazolo[4,3-b]pyridin-3-yl)-1H-imidazo[4,5-c]pyridin-4-yl)phenyl)-N^2,N^2-dimethylethane-1,2-diamine]	32.6	36.2	22.1
> 10	> 10	> 10	CCC(=O)Nc1cncc(-c2ccc3[nH]nc(-c4nc5c(-c6cccs6)nccc5[nH]4)c3n2)c1 [Compound 337, N-(5-(3-(4-(Thiophen-2-yl)-1H-imidazo[4,5-c]pyridin-2-yl)-1H-pyrazolo [4,3-b]pyridin-5-yl)pyridin-3-yl)propionamide]	0	31.8	39.4
3.82	3.42	> 10	c1cc2[nH]c(-c3n[nH]c4ccc(-c5cncc(CNCC6CCCC6)c5)nc34)nc2c(-c2ccoc2)n1 [Compound 333, 1-Cyclopentyl-N-((5-(3-(4-(furan-3-yl)-1H-imidazo[4,5-c]pyridin-2-yl)-1H-pyrazolo [4,3-b]pyridin-5-yl)pyridin-3-yl)methyl)methanamine]	32.3	–	–
0.211	0.624	> 10	Cc1ncc(-c2ccc3[nH]nc(-c4nc5c(-c6ccoc6)nccc5[nH]4)c3n2)n1C [Compound 685, 5-(1,2-Dimethyl-1H-imidazol-5-yl)-3-(4-(furan-3-yl)-1H-imidazo[4,5-c]pyridin-2-yl)-1H-pyrazolo[4,3-b]pyridine]	30.2	–	–
> 10	> 10	> 10	Cc1cn(-c2nccc3[nH]c(-c4n[nH]c5ccc(-c6cncc(NC(=O)C(C)(C)C)c6)nc45)nc23)cn1 [Compound 204, N-(5-(3-(4-(4-Methyl-1H-imidazol-1-yl)-1H-imidazo[4,5-c]pyridin-2-yl)-1H-pyrazolo[4,3-b]pyridin-5-yl)pyridin-3-yl)pivalamide]	41.8	21	0
> 10	> 10	> 10	CCCCC(=O)Nc1cncc(-c2ccc3[nH]nc(-c4nc5c(-c6ccccn6)nccc5[nH]4)c3n2)c1 [Compound 159, N-(5-(3-(4-(Pyridin-2-yl)-1H-imidazo[4,5-c]pyridin-2-yl)-1H-pyrazolo[4,3-b]pyridin-5-yl)pyridin-3-yl)pentanamide]	28.2	1.2	5.7
